# pEC50: −log10 of the molar value.
# Tested on: Hepatitis B virus
# Test: Inhibition of the replication of HBV in 2.2.15 cells, by DNA hybridization assay
# Type: functional, organism-based
# Conditions: HepG2 2.2.15
row,Compound,pEC50
1,COc1nc(N)nc2c1ncn2/C=C1/C[C@@H]1CO,< 5.00
2,Nc1nc(NCCO)c2ncn(/C=C3/C[C@@H]3CO)c2n1,< 4.70
3,CCCCCOc1nc(N)nc2c1ncn2/C=C1/C[C@@H]1CO,5.14
4,C#CCNc1nc(N)nc2c1ncn2/C=C1/C[C@@H]1CO,< 5.00
5,Nc1nc(NCC2CC2)c2ncn(/C=C3/C[C@@H]3CO)c2n1,< 4.70
6,CCCCCSc1nc(N)nc2c1ncn2/C=C1/C[C@@H]1CO,< 4.70
7,CCCOc1nc(N)nc2c1ncn2/C=C1/C[C@@H]1CO,5.39
8,CC(C)Nc1nc(N)nc2c1ncn2/C=C1/C[C@@H]1CO,< 5.00
9,Nc1nc(NC2CCCCC2)c2ncn(/C=C3/C[C@@H]3CO)c2n1,< 4.70

# Tested on: Human alphaherpesvirus 1
# Test: Concentration inhibiting the replication of HSV-1 in BSC-1 cells determined by ELISA assay
# Type: functional, organism-based, herpes simplex virus
# Conditions: Human alphaherpesvirus 1, BSC-1
row,Compound,pEC50
1,COc1nc(N)nc2c1ncn2/C=C1/C[C@@H]1CO,4.70
2,Nc1nc(NCCO)c2ncn(/C=C3/C[C@@H]3CO)c2n1,< 4.00
3,CCCCCOc1nc(N)nc2c1ncn2/C=C1/C[C@@H]1CO,5.15
4,C#CCNc1nc(N)nc2c1ncn2/C=C1/C[C@@H]1CO,5.22
5,Nc1nc(NCC2CC2)c2ncn(/C=C3/C[C@@H]3CO)c2n1,5.60
6,CCCCCSc1nc(N)nc2c1ncn2/C=C1/C[C@@H]1CO,5.15
7,CCCOc1nc(N)nc2c1ncn2/C=C1/C[C@@H]1CO,6.00
8,CC(C)Nc1nc(N)nc2c1ncn2/C=C1/C[C@@H]1CO,4.82
9,Nc1nc(NC2CCCCC2)c2ncn(/C=C3/C[C@@H]3CO)c2n1,4.82

# Tested on: CCRF-CEM
# Test: Cytotoxicity in uninfected CEM cells
# Type: functional
# Conditions: Homo sapiens
row,Compound,CC50 [µM]
1,COc1nc(N)nc2c1ncn2/C=C1/C[C@@H]1CO,98
2,Nc1nc(NCCO)c2ncn(/C=C3/C[C@@H]3CO)c2n1,> 100
3,CCCCCOc1nc(N)nc2c1ncn2/C=C1/C[C@@H]1CO,87
4,C#CCNc1nc(N)nc2c1ncn2/C=C1/C[C@@H]1CO,> 100
5,Nc1nc(NCC2CC2)c2ncn(/C=C3/C[C@@H]3CO)c2n1,> 100
6,CCCCCSc1nc(N)nc2c1ncn2/C=C1/C[C@@H]1CO,26
7,CCCOc1nc(N)nc2c1ncn2/C=C1/C[C@@H]1CO,32
8,CC(C)Nc1nc(N)nc2c1ncn2/C=C1/C[C@@H]1CO,> 100
9,Nc1nc(NC2CCCCC2)c2ncn(/C=C3/C[C@@H]3CO)c2n1,> 100

# Tested on: Human gammaherpesvirus 4
# Test: Concentration inhibiting the replication of EBV in Daudi cells
# Type: functional, organism-based
# Conditions: human gammaherpesvirus 4, Daudi
row,Compound,pEC50
1,COc1nc(N)nc2c1ncn2/C=C1/C[C@@H]1CO,5.42
2,Nc1nc(NCCO)c2ncn(/C=C3/C[C@@H]3CO)c2n1,< 3.74
3,CCCCCOc1nc(N)nc2c1ncn2/C=C1/C[C@@H]1CO,4.63
4,C#CCNc1nc(N)nc2c1ncn2/C=C1/C[C@@H]1CO,< 3.73
5,Nc1nc(NCC2CC2)c2ncn(/C=C3/C[C@@H]3CO)c2n1,6.25
6,CCCCCSc1nc(N)nc2c1ncn2/C=C1/C[C@@H]1CO,4.40
7,CCCOc1nc(N)nc2c1ncn2/C=C1/C[C@@H]1CO,< 3.74
8,CC(C)Nc1nc(N)nc2c1ncn2/C=C1/C[C@@H]1CO,4.44
9,Nc1nc(NC2CCCCC2)c2ncn(/C=C3/C[C@@H]3CO)c2n1,< 3.80

# Tested on: Daudi
# Test: Concentration inhibiting the replication of EBV in Daudi cells by DNA hybridization assay
# Type: functional, cell-based
# Conditions: Homo sapiens
row,Compound,pEC50
1,COc1nc(N)nc2c1ncn2/C=C1/C[C@@H]1CO,6.00
2,Nc1nc(NCC2CC2)c2ncn(/C=C3/C[C@@H]3CO)c2n1,5.15

# Tested on: Human gammaherpesvirus 4
# Test: Concentration inhibiting the replication of EBV in H-1 cells by DNA hybridization assay
# Type: functional, organism-based
# Conditions: human gammaherpesvirus 4, H-1
row,Compound,pEC50
1,COc1nc(N)nc2c1ncn2/C=C1/C[C@@H]1CO,6.36
2,Nc1nc(NCCO)c2ncn(/C=C3/C[C@@H]3CO)c2n1,< 4.70
3,CCCCCOc1nc(N)nc2c1ncn2/C=C1/C[C@@H]1CO,5.14
4,C#CCNc1nc(N)nc2c1ncn2/C=C1/C[C@@H]1CO,~5.70
5,Nc1nc(NCC2CC2)c2ncn(/C=C3/C[C@@H]3CO)c2n1,< 4.70
6,CCCCCSc1nc(N)nc2c1ncn2/C=C1/C[C@@H]1CO,< 4.70
7,CCCOc1nc(N)nc2c1ncn2/C=C1/C[C@@H]1CO,5.82
8,CC(C)Nc1nc(N)nc2c1ncn2/C=C1/C[C@@H]1CO,4.96
9,Nc1nc(NC2CCCCC2)c2ncn(/C=C3/C[C@@H]3CO)c2n1,< 4.70

# Tested on: HFF
# Test: Cytotoxicity against proliferating HFF cells
# Type: functional
# Conditions: Homo sapiens
row,Compound,CC50 [µM]
1,COc1nc(N)nc2c1ncn2/C=C1/C[C@@H]1CO,15.8
2,CCCCCOc1nc(N)nc2c1ncn2/C=C1/C[C@@H]1CO,41.9
3,C#CCNc1nc(N)nc2c1ncn2/C=C1/C[C@@H]1CO,306
4,CCCCCSc1nc(N)nc2c1ncn2/C=C1/C[C@@H]1CO,215
5,CCCOc1nc(N)nc2c1ncn2/C=C1/C[C@@H]1CO,69.4

# Tested on: MEF
# Test: Cytotoxicity in uninfected MEF cells
# Type: functional
# Conditions: Mus musculus
row,Compound,CC50 [µM]
1,COc1nc(N)nc2c1ncn2/C=C1/C[C@@H]1CO,351
2,Nc1nc(NCCO)c2ncn(/C=C3/C[C@@H]3CO)c2n1,> 362
3,CCCCCOc1nc(N)nc2c1ncn2/C=C1/C[C@@H]1CO,224
4,C#CCNc1nc(N)nc2c1ncn2/C=C1/C[C@@H]1CO,> 370
5,Nc1nc(NCC2CC2)c2ncn(/C=C3/C[C@@H]3CO)c2n1,279
6,CCCCCSc1nc(N)nc2c1ncn2/C=C1/C[C@@H]1CO,171
7,CCCOc1nc(N)nc2c1ncn2/C=C1/C[C@@H]1CO,363

# Tested on: Murid betaherpesvirus 1
# Test: Concentration inhibiting the replication of MCMV in MEF cells
# Type: functional, organism-based
# Conditions: Murid betaherpesvirus 1, MEF
row,Compound,pEC50
1,COc1nc(N)nc2c1ncn2/C=C1/C[C@@H]1CO,6.62
2,Nc1nc(NCCO)c2ncn(/C=C3/C[C@@H]3CO)c2n1,4.92
3,CCCCCOc1nc(N)nc2c1ncn2/C=C1/C[C@@H]1CO,5.84
4,C#CCNc1nc(N)nc2c1ncn2/C=C1/C[C@@H]1CO,6.43
5,Nc1nc(NCC2CC2)c2ncn(/C=C3/C[C@@H]3CO)c2n1,5.77
6,CCCCCSc1nc(N)nc2c1ncn2/C=C1/C[C@@H]1CO,5.82
7,CCCOc1nc(N)nc2c1ncn2/C=C1/C[C@@H]1CO,> 6.96

# Tested on: Human alphaherpesvirus 1
# Test: Concentration inhibiting the replication of HSV-1 in Vero cells determined by plaque reduction assay
# Type: functional, organism-based, herpes simplex virus
# Conditions: Human alphaherpesvirus 1, Vero
row,Compound,pEC50
1,COc1nc(N)nc2c1ncn2/C=C1/C[C@@H]1CO,4.64
2,Nc1nc(NCCO)c2ncn(/C=C3/C[C@@H]3CO)c2n1,< 4.30
3,CCCCCOc1nc(N)nc2c1ncn2/C=C1/C[C@@H]1CO,5.52
4,C#CCNc1nc(N)nc2c1ncn2/C=C1/C[C@@H]1CO,4.70
5,Nc1nc(NCC2CC2)c2ncn(/C=C3/C[C@@H]3CO)c2n1,4.60
6,CCCCCSc1nc(N)nc2c1ncn2/C=C1/C[C@@H]1CO,5.00
7,CCCOc1nc(N)nc2c1ncn2/C=C1/C[C@@H]1CO,5.40
8,CC(C)Nc1nc(N)nc2c1ncn2/C=C1/C[C@@H]1CO,< 4.42
9,Nc1nc(NC2CCCCC2)c2ncn(/C=C3/C[C@@H]3CO)c2n1,< 4.30

# Tested on: Human alphaherpesvirus 2
# Test: Concentration inhibiting the replication of HSV-2 in Vero cells.
# Type: functional, organism-based
# Conditions: Human alphaherpesvirus 2, Vero
row,Compound,pEC50
1,COc1nc(N)nc2c1ncn2/C=C1/C[C@@H]1CO,4.80
2,Nc1nc(NCCO)c2ncn(/C=C3/C[C@@H]3CO)c2n1,< 4.30
3,CCCCCOc1nc(N)nc2c1ncn2/C=C1/C[C@@H]1CO,5.40
4,C#CCNc1nc(N)nc2c1ncn2/C=C1/C[C@@H]1CO,4.30
5,Nc1nc(NCC2CC2)c2ncn(/C=C3/C[C@@H]3CO)c2n1,< 4.30
6,CCCCCSc1nc(N)nc2c1ncn2/C=C1/C[C@@H]1CO,4.85
7,CCCOc1nc(N)nc2c1ncn2/C=C1/C[C@@H]1CO,5.00
8,CC(C)Nc1nc(N)nc2c1ncn2/C=C1/C[C@@H]1CO,< 4.30
9,Nc1nc(NC2CCCCC2)c2ncn(/C=C3/C[C@@H]3CO)c2n1,< 4.30

# Tested on: Daudi
# Test: Cytotoxicity in uninfected Daudi cells
# Type: functional
# Conditions: Homo sapiens
row,Compound,CC50 [µM]
1,COc1nc(N)nc2c1ncn2/C=C1/C[C@@H]1CO,146
2,Nc1nc(NCCO)c2ncn(/C=C3/C[C@@H]3CO)c2n1,> 181
3,CCCCCOc1nc(N)nc2c1ncn2/C=C1/C[C@@H]1CO,> 165
4,C#CCNc1nc(N)nc2c1ncn2/C=C1/C[C@@H]1CO,> 185
5,Nc1nc(NCC2CC2)c2ncn(/C=C3/C[C@@H]3CO)c2n1,> 175
6,CCCCCSc1nc(N)nc2c1ncn2/C=C1/C[C@@H]1CO,> 157
7,CCCOc1nc(N)nc2c1ncn2/C=C1/C[C@@H]1CO,> 182
8,CC(C)Nc1nc(N)nc2c1ncn2/C=C1/C[C@@H]1CO,168
9,Nc1nc(NC2CCCCC2)c2ncn(/C=C3/C[C@@H]3CO)c2n1,> 159

# Tested on: HFF
# Test: Cytotoxicity was scored on uninfected HFF cells not affected by virus in the HCMV (AD169 strain) by neutral red uptake
# Type: functional
# Conditions: not given
row,Compound,CC50 [µM]
1,CC(C)Nc1nc(N)nc2c1ncn2/C=C1/C[C@@H]1CO,> 365
2,Nc1nc(NC2CCCCC2)c2ncn(/C=C3/C[C@@H]3CO)c2n1,> 318

# Tested on: Human betaherpesvirus 5
# Test: Concentration inhibiting the replication of HCMV in HFF cells by plaque reduction assay
# Conditions: Human betaherpesvirus 5, HFF
row,Compound,pEC50
1,COc1nc(N)nc2c1ncn2/C=C1/C[C@@H]1CO,5.00
2,Nc1nc(NCCO)c2ncn(/C=C3/C[C@@H]3CO)c2n1,< 4.22
3,CCCCCOc1nc(N)nc2c1ncn2/C=C1/C[C@@H]1CO,< 4.18
4,C#CCNc1nc(N)nc2c1ncn2/C=C1/C[C@@H]1CO,< 4.13
5,Nc1nc(NCC2CC2)c2ncn(/C=C3/C[C@@H]3CO)c2n1,4.97
6,CCCCCSc1nc(N)nc2c1ncn2/C=C1/C[C@@H]1CO,< 4.10
7,CCCOc1nc(N)nc2c1ncn2/C=C1/C[C@@H]1CO,5.10
8,CC(C)Nc1nc(N)nc2c1ncn2/C=C1/C[C@@H]1CO,< 3.44
9,Nc1nc(NC2CCCCC2)c2ncn(/C=C3/C[C@@H]3CO)c2n1,3.74

# Reference: ChEMBL document CHEMBL1136768, “Structure-activity relationships of (S,Z)-2-aminopurine methylenecyclopropane analogues of nucleosides. Variation of purine-6 substituents and activity against herpesviruses and hepatitis B virus” (J Med Chem, 2003)
